Among the data in the Kinase Knowledgebase extract (Sharma et al. 2016) are IC50 values, retold here.

The test has as its target MAPK14 (human) (UniProt Q16539). The experiment in a line: Inhibition of MAPK14 Kinase Activity.

Chain of MAPK14 (human) (Q16539 whole entry, looked up): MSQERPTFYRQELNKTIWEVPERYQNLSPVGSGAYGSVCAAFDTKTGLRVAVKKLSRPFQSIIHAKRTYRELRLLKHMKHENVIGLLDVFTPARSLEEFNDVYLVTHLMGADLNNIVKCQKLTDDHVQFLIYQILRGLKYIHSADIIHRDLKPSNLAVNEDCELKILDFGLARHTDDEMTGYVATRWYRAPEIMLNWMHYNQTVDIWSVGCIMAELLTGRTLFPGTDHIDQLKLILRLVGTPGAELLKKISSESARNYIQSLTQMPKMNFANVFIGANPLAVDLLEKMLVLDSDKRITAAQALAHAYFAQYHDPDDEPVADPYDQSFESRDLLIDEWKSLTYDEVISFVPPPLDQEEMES

What is called IC50 is the concentration at which inhibition is half-maximal. Read a low IC50 as inhibition by little substance. The compound `Nc1onc(-c2ccncc2)c1-c1ccc(F)cc1` showed a 50% inhibitory concentration (IC50) of 1.61 µM.
In turn, `Fc1ccc(-c2oncc2-c2ccnc(Br)c2)cc1` had an IC50 of 89 µM.
For `Fc1ccc(-c2[nH]c(-c3ccc(Cl)cc3)cc2-c2ccncc2)cc1` the value was 0.2 µM; for `CCOc1cc(-c2c(C(C)C)noc2-c2ccc(F)cc2)ccn1`, 56 µM.
The compound `Fc1ccc(-c2conc2-c2ccncc2)cc1` gave an IC50 of 1.22 µM.
With `Fc1ccc(-c2oncc2-c2ccnc(Cl)c2)cc1`, the 50% inhibitory concentration (IC50) worked out at 42 µM.
The compound `Fc1ccc(-c2oncc2-c2ccnc(OCCc3ccccc3)c2)cc1` had a 50% inhibitory concentration (IC50) of 34 µM.
The figure for `CN1CCC(O)(c2nc(-c3ccc(F)cc3)c(-c3ccncc3)o2)CC1` is 0.35 µM.
For `CC(C)Oc1cc(-c2cnoc2-c2ccc(F)cc2)ccn1` the value was 31 µM; for `CN1CCC(O)(c2nc(-c3ccc(F)cc3)c(-c3ccncc3)[nH]2)CC1`, 0.09 µM; for `C[S+]([O-])c1ccc(-c2cc(-c3ccc(F)cc3)c(-c3ccncc3)[nH]2)cc1` (stereo not drawn), 1.22 µM.
The compound `COc1cc(-c2cnoc2-c2ccc(F)cc2)ccn1` yielded an IC50 of 50 µM.
In the case of `CC(C)c1noc(-c2ccc(F)cc2)c1-c1ccnc(NC2CC2)c1`, the 50% inhibitory concentration (IC50) worked out at 2 µM.
The compound `Fc1ccc(-c2oncc2-c2ccncc2)cc1` had an IC50 of 41 µM.
With `Fc1ccc(-c2oc(-c3ccc(Cl)cc3)cc2-c2ccncc2)cc1`, the IC50 amounted to 0.63 µM.
Regarding `CN1CCC(O)(c2nc(-c3ccncc3)c(-c3ccc(F)cc3)o2)CC1`, the half-inhibitory concentration (IC50) stood at 2 µM.
For `CCOc1cc(-c2cnoc2-c2ccc(F)cc2)ccn1` the value was 82 µM; for `CC(C)c1noc(-c2ccc(F)cc2)c1-c1ccnc(NC(C)c2ccccc2)c1` (stereo not drawn), 0.55 µM.
Compound `CC(C)c1noc(-c2ccc(F)cc2)c1-c1ccnc(NCC2CC2)c1` registered a half-maximal inhibitory concentration (IC50) of 1.3 µM.
`CCCNc1cc(-c2c(C(C)C)noc2-c2ccc(F)cc2)ccn1` had an IC50 of 4 µM.
The figure for `CCCCOc1cc(-c2cnoc2-c2ccc(F)cc2)ccn1` is 21 µM.
In turn, `Fc1ccc(-c2nc[nH]c2-c2ccncc2)cc1` gave an IC50 of 0.17 µM.
`CCCCCNc1cc(-c2c(C(C)C)noc2-c2ccc(F)cc2)ccn1` returned a half-maximal inhibitory concentration (IC50) of 82 µM.
